PubChem BioAssay (NCI)
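Method: 48-hour compound exposure of cells in 96-well plates, five concentrations, linear interpolation of endpoints. TGI is the concentration that stops growth completely.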

tested on: UACC-62 melanoma; assay: NCI-60 cell line screen, 48 h

Row | SMILES | TGI [µM]
1 | O=c1[nH]c2ccc([N+](=O)[O-])cc2nc1/C=C(\O)c1ccccc1 | > 100
2 | O=C1CC(c2ccccc2)S(=O)c2ccccc2N1 (stereo not given) | > 100
3 | COCCN1C(=O)C2c3[nH]c4ccccc4c3C3CCC(C(C)(C)C)CC3C2C1=O (stereo not given) | > 10
4 | COC(=O)C(NC(=O)OC(C)(C)C)P(=O)(OC)OC (stereo not given) | > 100
5 | COC(=O)c1cc(/C=C\c2cc(OC)ccc2OC)ccc1OC | 90.8
6 | CC(NC(=O)C(Cc1ccc(OC(=O)c2ccccc2)cc1)NC(=O)OC(C)(C)C)C(=O)NCC(=O)NC(Cc1ccccc1)C(=O)NN (stereo not given) | > 100
7 | O=C1c2cc([N+](=O)[O-])sc2C(=O)c2c([N+](=O)[O-])csc21 | 1.19
8 | Clc1cc2nnn(C3CCCO3)c2cc1Cl (stereo not given) | > 100
9 | O=C1N(c2ccccc2)C(=S)/C(=C/c2ccc(Cl)cc2)N1c1ccc(Cl)cc1 | 53.3
10 | CC(=O)NC1C(OCc2ccccc2)OC(CO)C(O)C1OCC(=O)N[C@@H](C)C(=O)N[C@H](CCC(=O)NCCCNc1ccc([N+](=O)[O-])c2[nH]c3ccccc3c(=O)c12)C(N)=O (stereo not given in full) | > 100
11 | NN/C(=N\S(=O)(=O)c1ccc(S(=O)(=O)c2ccccc2)s1)Nc1ccc(Cl)cc1 | 33.5

tested on: NCI-H226 lung; assay: NCI-60 cell line screen, 48 h

Row | SMILES | TGI [µM]
12 | O=c1[nH]c2ccc([N+](=O)[O-])cc2nc1/C=C(\O)c1ccccc1 | > 100
13 | O=C1CC(c2ccccc2)S(=O)c2ccccc2N1 (stereo not given) | > 100
14 | COCCN1C(=O)C2c3[nH]c4ccccc4c3C3CCC(C(C)(C)C)CC3C2C1=O (stereo not given) | 39
15 | COC(=O)C(NC(=O)OC(C)(C)C)P(=O)(OC)OC (stereo not given) | > 100
16 | Cc1ccc(S(=NS(=O)(=O)c2ccc(C)cc2)c2ccc(C)cc2)cc1 | > 100
17 | CC(NC(=O)C(Cc1ccc(OC(=O)c2ccccc2)cc1)NC(=O)OC(C)(C)C)C(=O)NCC(=O)NC(Cc1ccccc1)C(=O)NN (stereo not given) | > 100
18 | O=C1c2cc([N+](=O)[O-])sc2C(=O)c2c([N+](=O)[O-])csc21 | 3.8
19 | Clc1cc2nnn(C3CCCO3)c2cc1Cl (stereo not given) | > 100
20 | CC(=O)NC1C(OCc2ccccc2)OC(CO)C(O)C1OCC(=O)N[C@@H](C)C(=O)N[C@H](CCC(=O)NCCCNc1ccc([N+](=O)[O-])c2[nH]c3ccccc3c(=O)c12)C(N)=O (stereo not given in full) | 65.8
21 | NN/C(=N\S(=O)(=O)c1ccc(S(=O)(=O)c2ccccc2)s1)Nc1ccc(Cl)cc1 | > 100
22 | Cc1ccc(/C=C2/N=C(N/N=C\c3ccccc3)NC2=O)cc1 | > 100

tested on: SR leukemia; assay: NCI-60 cell line screen, 48 h

Row | SMILES | TGI [µM]
23 | O=c1[nH]c2ccc([N+](=O)[O-])cc2nc1/C=C(\O)c1ccccc1 | > 100
24 | O=C1CC(c2ccccc2)S(=O)c2ccccc2N1 (stereo not given) | > 100
25 | COCCN1C(=O)C2c3[nH]c4ccccc4c3C3CCC(C(C)(C)C)CC3C2C1=O (stereo not given) | 27
26 | COC(=O)C(NC(=O)OC(C)(C)C)P(=O)(OC)OC (stereo not given) | > 100
27 | COC(=O)c1cc(/C=C\c2cc(OC)ccc2OC)ccc1OC | > 100
28 | Cc1ccc(S(=NS(=O)(=O)c2ccc(C)cc2)c2ccc(C)cc2)cc1 | > 100
29 | CC(NC(=O)C(Cc1ccc(OC(=O)c2ccccc2)cc1)NC(=O)OC(C)(C)C)C(=O)NCC(=O)NC(Cc1ccccc1)C(=O)NN (stereo not given) | 56.9
30 | O=C1c2cc([N+](=O)[O-])sc2C(=O)c2c([N+](=O)[O-])csc21 | 0.173
31 | Clc1cc2nnn(C3CCCO3)c2cc1Cl (stereo not given) | > 100
32 | O=C1N(c2ccccc2)C(=S)/C(=C/c2ccc(Cl)cc2)N1c1ccc(Cl)cc1 | 15.5
33 | CC(=O)NC1C(OCc2ccccc2)OC(CO)C(O)C1OCC(=O)N[C@@H](C)C(=O)N[C@H](CCC(=O)NCCCNc1ccc([N+](=O)[O-])c2[nH]c3ccccc3c(=O)c12)C(N)=O (stereo not given in full) | > 100
34 | NN/C(=N\S(=O)(=O)c1ccc(S(=O)(=O)c2ccccc2)s1)Nc1ccc(Cl)cc1 | 44
35 | Cc1ccc(/C=C2/N=C(N/N=C\c3ccccc3)NC2=O)cc1 | > 100

tested on: NCI-H522 lung; assay: NCI-60 cell line screen, 48 h

Row | SMILES | TGI [µM]
36 | O=c1[nH]c2ccc([N+](=O)[O-])cc2nc1/C=C(\O)c1ccccc1 | 34.6
37 | O=C1CC(c2ccccc2)S(=O)c2ccccc2N1 (stereo not given) | > 100
38 | COCCN1C(=O)C2c3[nH]c4ccccc4c3C3CCC(C(C)(C)C)CC3C2C1=O (stereo not given) | 35.7
39 | COC(=O)C(NC(=O)OC(C)(C)C)P(=O)(OC)OC (stereo not given) | > 100
40 | COC(=O)c1cc(/C=C\c2cc(OC)ccc2OC)ccc1OC | 45.6
41 | CC(NC(=O)C(Cc1ccc(OC(=O)c2ccccc2)cc1)NC(=O)OC(C)(C)C)C(=O)NCC(=O)NC(Cc1ccccc1)C(=O)NN (stereo not given) | > 100
42 | O=C1c2cc([N+](=O)[O-])sc2C(=O)c2c([N+](=O)[O-])csc21 | 1.68
43 | Clc1cc2nnn(C3CCCO3)c2cc1Cl (stereo not given) | > 100
44 | O=C1N(c2ccccc2)C(=S)/C(=C/c2ccc(Cl)cc2)N1c1ccc(Cl)cc1 | 38.4
45 | CC(=O)NC1C(OCc2ccccc2)OC(CO)C(O)C1OCC(=O)N[C@@H](C)C(=O)N[C@H](CCC(=O)NCCCNc1ccc([N+](=O)[O-])c2[nH]c3ccccc3c(=O)c12)C(N)=O (stereo not given in full) | > 100
46 | Cc1ccc(/C=C2/N=C(N/N=C\c3ccccc3)NC2=O)cc1 | > 100

tested on: HOP-92 NSCLC; assay: NCI-60 cell line screen, 48 h

Row | SMILES | TGI [µM]
47 | COC(=O)C(NC(=O)OC(C)(C)C)P(=O)(OC)OC (stereo not given) | > 100
48 | Cc1ccc(S(=NS(=O)(=O)c2ccc(C)cc2)c2ccc(C)cc2)cc1 | > 100
49 | CC(NC(=O)C(Cc1ccc(OC(=O)c2ccccc2)cc1)NC(=O)OC(C)(C)C)C(=O)NCC(=O)NC(Cc1ccccc1)C(=O)NN (stereo not given) | > 100
50 | O=C1c2cc([N+](=O)[O-])sc2C(=O)c2c([N+](=O)[O-])csc21 | 0.82
51 | CC(=O)NC1C(OCc2ccccc2)OC(CO)C(O)C1OCC(=O)N[C@@H](C)C(=O)N[C@H](CCC(=O)NCCCNc1ccc([N+](=O)[O-])c2[nH]c3ccccc3c(=O)c12)C(N)=O (stereo not given in full) | > 100
52 | NN/C(=N\S(=O)(=O)c1ccc(S(=O)(=O)c2ccccc2)s1)Nc1ccc(Cl)cc1 | 73.3

tested on: SN12C renal; assay: NCI-60 cell line screen, 48 h

Row | SMILES | TGI [µM]
53 | O=c1[nH]c2ccc([N+](=O)[O-])cc2nc1/C=C(\O)c1ccccc1 | 59.5
54 | O=C1CC(c2ccccc2)S(=O)c2ccccc2N1 (stereo not given) | > 100
55 | COCCN1C(=O)C2c3[nH]c4ccccc4c3C3CCC(C(C)(C)C)CC3C2C1=O (stereo not given) | 32.9
56 | COC(=O)C(NC(=O)OC(C)(C)C)P(=O)(OC)OC (stereo not given) | > 100
57 | COC(=O)c1cc(/C=C\c2cc(OC)ccc2OC)ccc1OC | > 100
58 | Cc1ccc(S(=NS(=O)(=O)c2ccc(C)cc2)c2ccc(C)cc2)cc1 | > 100
59 | O=C1c2cc([N+](=O)[O-])sc2C(=O)c2c([N+](=O)[O-])csc21 | 1.09
60 | Clc1cc2nnn(C3CCCO3)c2cc1Cl (stereo not given) | > 100
61 | O=C1N(c2ccccc2)C(=S)/C(=C/c2ccc(Cl)cc2)N1c1ccc(Cl)cc1 | > 100
62 | CC(=O)NC1C(OCc2ccccc2)OC(CO)C(O)C1OCC(=O)N[C@@H](C)C(=O)N[C@H](CCC(=O)NCCCNc1ccc([N+](=O)[O-])c2[nH]c3ccccc3c(=O)c12)C(N)=O (stereo not given in full) | > 100
63 | NN/C(=N\S(=O)(=O)c1ccc(S(=O)(=O)c2ccccc2)s1)Nc1ccc(Cl)cc1 | 77.8
64 | Cc1ccc(/C=C2/N=C(N/N=C\c3ccccc3)NC2=O)cc1 | > 100

tested on: SF-539 CNS; assay: NCI-60 cell line screen, 48 h

Row | SMILES | TGI [µM]
65 | O=c1[nH]c2ccc([N+](=O)[O-])cc2nc1/C=C(\O)c1ccccc1 | 69.8
66 | COCCN1C(=O)C2c3[nH]c4ccccc4c3C3CCC(C(C)(C)C)CC3C2C1=O (stereo not given) | 35.6
67 | COC(=O)c1cc(/C=C\c2cc(OC)ccc2OC)ccc1OC | > 100
68 | Cc1ccc(S(=NS(=O)(=O)c2ccc(C)cc2)c2ccc(C)cc2)cc1 | > 100
69 | CC(NC(=O)C(Cc1ccc(OC(=O)c2ccccc2)cc1)NC(=O)OC(C)(C)C)C(=O)NCC(=O)NC(Cc1ccccc1)C(=O)NN (stereo not given) | > 100
70 | O=C1c2cc([N+](=O)[O-])sc2C(=O)c2c([N+](=O)[O-])csc21 | 1.17
71 | Clc1cc2nnn(C3CCCO3)c2cc1Cl (stereo not given) | > 100
72 | O=C1N(c2ccccc2)C(=S)/C(=C/c2ccc(Cl)cc2)N1c1ccc(Cl)cc1 | 41.2
73 | CC(=O)NC1C(OCc2ccccc2)OC(CO)C(O)C1OCC(=O)N[C@@H](C)C(=O)N[C@H](CCC(=O)NCCCNc1ccc([N+](=O)[O-])c2[nH]c3ccccc3c(=O)c12)C(N)=O (stereo not given in full) | > 100
74 | NN/C(=N\S(=O)(=O)c1ccc(S(=O)(=O)c2ccccc2)s1)Nc1ccc(Cl)cc1 | > 100
75 | Cc1ccc(/C=C2/N=C(N/N=C\c3ccccc3)NC2=O)cc1 | > 100

tested on: MCF7 breast; assay: NCI-60 cell line screen, 48 h

Row | SMILES | TGI [µM]
76 | O=c1[nH]c2ccc([N+](=O)[O-])cc2nc1/C=C(\O)c1ccccc1 | > 100
77 | O=C1CC(c2ccccc2)S(=O)c2ccccc2N1 (stereo not given) | > 100
78 | COCCN1C(=O)C2c3[nH]c4ccccc4c3C3CCC(C(C)(C)C)CC3C2C1=O (stereo not given) | 43.3
79 | COC(=O)C(NC(=O)OC(C)(C)C)P(=O)(OC)OC (stereo not given) | > 100
80 | COC(=O)c1cc(/C=C\c2cc(OC)ccc2OC)ccc1OC | 84.4
81 | Cc1ccc(S(=NS(=O)(=O)c2ccc(C)cc2)c2ccc(C)cc2)cc1 | > 100
82 | CC(NC(=O)C(Cc1ccc(OC(=O)c2ccccc2)cc1)NC(=O)OC(C)(C)C)C(=O)NCC(=O)NC(Cc1ccccc1)C(=O)NN (stereo not given) | > 100
83 | Clc1cc2nnn(C3CCCO3)c2cc1Cl (stereo not given) | > 100
84 | O=C1N(c2ccccc2)C(=S)/C(=C/c2ccc(Cl)cc2)N1c1ccc(Cl)cc1 | > 100
85 | NN/C(=N\S(=O)(=O)c1ccc(S(=O)(=O)c2ccccc2)s1)Nc1ccc(Cl)cc1 | > 100
86 | Cc1ccc(/C=C2/N=C(N/N=C\c3ccccc3)NC2=O)cc1 | > 100

tested on: BT-549 breast; assay: NCI-60 cell line screen, 48 h

Row | SMILES | TGI [µM]
87 | O=c1[nH]c2ccc([N+](=O)[O-])cc2nc1/C=C(\O)c1ccccc1 | > 100
88 | O=C1CC(c2ccccc2)S(=O)c2ccccc2N1 (stereo not given) | > 100
89 | COCCN1C(=O)C2c3[nH]c4ccccc4c3C3CCC(C(C)(C)C)CC3C2C1=O (stereo not given) | 35.3
90 | COC(=O)C(NC(=O)OC(C)(C)C)P(=O)(OC)OC (stereo not given) | > 100
